Experimental data published in the NIST ThermoML archive (doi:10.1021/je5008789).

Conditions: Liquid; for mass density: Vibrating tube method; for viscosity: Vibrating wire viscometry

CC(C)CCCC(C)CCCC(C)CCCCC(C)CCCC(C)CCCC(C)C (configuration not stated) [2,6,10,15,19,23-hexamethyltetracosane]
Conditions | mass density [kg/m3] | viscosity [mPa·s]
338.19 K, 1050 kPa | 779.26 | 6.815
338.19 K, 21210 kPa | 792.77 | 9.666
338.2 K, 40640 kPa | 803.93 | 13.19
338.2 K, 60420 kPa | 814.29 | 17.71
338.2 K, 79830 kPa | 822.46 | 23.48
338.2 K, 100230 kPa | 831.55 | 30.94
338.2 K, 140240 kPa | 845.12 | 52.3
338.2 K, 161300 kPa | 851.46 | 68.14
338.21 K, 119820 kPa | 837.96 | 40.32
338.22 K, 940 kPa | 778.91 | 6.808
338.29 K, 1010 kPa | 779.46 | 6.83
373.12 K, 620 kPa | 756.02 | 3.122
373.12 K, 780 kPa | 756.09 | 3.125
373.12 K, 20350 kPa | 771.55 | 4.234
373.12 K, 39970 kPa | 784.5 | 5.565
373.12 K, 60030 kPa | 795.89 | 7.219
373.12 K, 80950 kPa | 806.36 | 9.293
373.12 K, 101160 kPa | 815.48 | 11.72
373.12 K, 120420 kPa | 823.57 | 14.4
373.12 K, 140640 kPa | 831.1 | 17.83
373.12 K, 159510 kPa | 837.61 | 21.73
373.12 K, 180460 kPa | 843.98 | 26.77
373.12 K, 201380 kPa | 850.63 | 32.72
388.13 K, 890 kPa | 746.65 | 2.432
388.13 K, 20290 kPa | 762.98 | 3.25
388.13 K, 80490 kPa | 799.25 | 6.828
388.13 K, 101530 kPa | 809.12 | 8.548
388.13 K, 120960 kPa | 817.16 | 10.46
388.13 K, 139900 kPa | 824.59 | 12.58
388.14 K, 1100 kPa | 746.78 | 2.436
388.14 K, 40380 kPa | 776.95 | 4.242
388.14 K, 59850 kPa | 788.53 | 5.392
388.14 K, 160800 kPa | 832.35 | 15.31
388.14 K, 180610 kPa | 838.96 | 18.4
388.14 K, 201470 kPa | 845.55 | 22.16
413.17 K, 1050 kPa | 730.56 | 1.691
413.18 K, 20110 kPa | 748.65 | 2.233
413.18 K, 40280 kPa | 763.94 | 2.885
413.18 K, 60200 kPa | 776.68 | 3.62
413.21 K, 80740 kPa | 788.16 | 4.485
413.22 K, 100350 kPa | 797.82 | 5.454
413.22 K, 120460 kPa | 806.56 | 6.574
413.24 K, 610 kPa | 730.1 | 1.68
413.24 K, 140200 kPa | 815.07 | 7.831
413.25 K, 160570 kPa | 822.8 | 9.322
413.25 K, 181450 kPa | 829.85 | 11.12
413.25 K, 202090 kPa | 836.75 | 13.06
433.18 K, 1120 kPa | 717.8 | 1.324
433.19 K, 60430 kPa | 767.55 | 2.785
433.19 K, 160660 kPa | 815.65 | 6.774
433.19 K, 180700 kPa | 823.09 | 7.891
433.19 K, 200370 kPa | 830.05 | 9.057
433.2 K, 80190 kPa | 779.13 | 3.392
433.21 K, 100280 kPa | 789.84 | 4.072
433.21 K, 120040 kPa | 798.72 | 4.865
433.21 K, 140200 kPa | 807.55 | 5.754
433.31 K, 600 kPa | 717.04 | 1.309
433.35 K, 20500 kPa | 737.74 | 1.749
433.36 K, 680 kPa | 717.22 | 1.309
433.36 K, 40310 kPa | 753.83 | 2.231
452.85 K, 201770 kPa | 823.37 | 6.867
452.95 K, 163170 kPa | 809.3 | 5.261
452.95 K, 180270 kPa | 815.84 | 5.937
453.15 K, 1150 kPa | 704.74 | 1.062
453.16 K, 20190 kPa | 726.4 | 1.405
453.17 K, 40450 kPa | 744.09 | 1.796
453.18 K, 60480 kPa | 758.43 | 2.222
453.18 K, 80140 kPa | 770.59 | 2.681
453.18 K, 100410 kPa | 781.58 | 3.214
453.19 K, 160150 kPa | 808.49 | 5.142
453.2 K, 120790 kPa | 791.61 | 3.8
453.2 K, 140400 kPa | 800.32 | 4.438
453.2 K, 180710 kPa | 816.55 | 5.945
472.81 K, 1050 kPa | 691.59 | 0.867
473.03 K, 200210 kPa | 815.83 | 5.348
473.04 K, 1050 kPa | 691.45 | 0.868
473.05 K, 150 kPa | 690.19 | 0.853
473.05 K, 20040 kPa | 715.2 | 1.151
473.05 K, 39890 kPa | 733.71 | 1.465
473.05 K, 120200 kPa | 783.48 | 3.031
473.05 K, 140440 kPa | 792.71 | 3.531
473.05 K, 160340 kPa | 801 | 4.073
473.05 K, 180470 kPa | 808.83 | 4.671
473.06 K, 60230 kPa | 749.17 | 1.81
473.06 K, 79910 kPa | 761.86 | 2.175
473.07 K, 100370 kPa | 773.42 | 2.59
